The values that follow come from patent US8927580B2, “Thiosemicarbazone compounds and use in the treatment of cancer” (Oncochel Therapeutics LLC, priority 2010, dated 2015).

Data set [1] relates to CFPAC-1 pancreatic cancer cells. Briefly: MTT proliferation assay, CFPAC-1. It counts as cell-based. Conditions: Homo sapiens; CFPAC-1, MTT, 72 h. As for the experimental part: (§1) The pancreatic cancer cell lines, including MIAPaCa-2, PANC 1, CAPAN-2 and CFPAC-1 were a generous gift from Prof. Andrew Biankin (Garvan Institute, NSW, Australia). The MIAPaCa-2, PANC 1 and CFPAC-1 cell lines were grown in DMEM medium (Invitrogen) and CAPAN-2 cells were grown in McCoy's medium (Invitrogen). All media was supplemented with 10% (v/v) fetal calf serum (Invitrogen), 1% (v/v) non-essential amino acids (Invitrogen), 1% (v/v) sodium pyruvate (Invitrogen), 2 mM L-glutamine (Invitrogen), 100 μg/mL of streptomycin (Invitrogen), 100 U/ml penicillin (Invitrogen), and 0.28 μg/mL of fungizone.
(§2) To further examine the spectrum of anti-proliferative activity, Dp4cycH4mT was tested against pancreatic cancer in vitro, performing MTT proliferation assays with PANC 1, MIAPaCa-2, CFPAC-1 and CAPAN-2 pancreatic cancer cells. As a comparison, currently used treatments for pancreatic cancer including gemcitabine and 5-fluorouracil were also tested. The iron chelator, DFO, was included as a positive control.
(§3) Table 2A. Anti-proliferative activity of Dp4cycH4mT against pancreatic cancer cell lines. Growth and antiproliferative activity IC50 (μM) values of Dp4cycH4mT in a variety of pancreatic cell lines and in comparison to DFO and the clinically used drugs gemcitabine and 5-fluorouracil as determined by the MTT assay. Cells were seeded and allowed to attach to wells for 24 h and then incubated for 72 h at 37° C. with control medium or the chelators. Results are mean±SD (3 experiments).
(§4) Table 2B. Anti-proliferative activity of Dp4cycH4mT against pancreatic cancer cell lines. IC90 (μM) values of Dp4cycH4mT in a variety of pancreatic cell lines and in comparison to DFO and the clinically used drugs gemcitabine and 5-fluorouracil as determined by the MTT assay. Cells were seeded and allowed to attach to wells for 24 h and then incubated for 72 h at 37° C. with control medium or the chelators. Results are mean±SD (3 experiments).
On the technique in general: Tetrazolium assays rely on reduction of a dye to a coloured formazan, in cell work by metabolically active cells.

The test system of data set [2] is CAPAN-2 pancreatic cancer cells. Briefly: MTT proliferation assay, CAPAN-2. It counts as cell-based. To be noted: Homo sapiens; CAPAN-2, MTT, 72 h. As for the experimental part: as §1, §2, §3, §4
In data set [3] the test system is PANC 1 pancreatic cancer cells. Briefly: MTT proliferation assay, PANC 1. It counts as cell-based. Conditions: Homo sapiens; PANC 1, MTT, 72 h. The protocol: as §1, §2, §3, §4
Data set [4] concerns MIAPaCa-2 pancreatic cancer cells. Briefly: MTT proliferation assay, MIAPaCa-2. The class given is cell-based. Conditions: Homo sapiens, MIA PaCa-2; MIAPaCa-2, MTT, 72 h. The protocol:
as §1, §2, §3, §4

Data set [5] relates to SK-N-MC neuroepithelioma cells. Briefly: Iron uptake assay (59Fe uptake from 59Fe-transferrin). The class given is cell-based, human. To be noted: 25 μM chelator, 3 h at 37° C., 59Fe-Tf. The protocol: Cells were cultured in the same way as for the iron efflux experiments. […] At the end of the incubation the culture dishes were placed on ice, the media aspirated, and the cells washed 4 times with ice cold PBS. Protease (1 mL; 1 mg/mL; Sigma-Aldrich, NSW, Australia) solution was added to each plate and allowed to incubate on ice for 30 min. This facilitated the removal of membrane bound ^59Fe-Tf. Cells were then scraped from the plastic surface using a Teflon spatula and collected in Eppendorf tubes. These were centrifuged at 10000 rpm and 4° C. for 3 min. The supernatant was then transferred into counting tubes and the cell pellet resuspended in PBS before also being transferred into another set of counting tubes. Radioactivity was measured using a Wallac Wizard 3″ Gamma Counter (PerkinElmer, MA, USA). Results are expressed as average ^59Fe content of the cellular fraction as a percentage of the control value.

Data set [6] deals with SK-N-MC neuroepithelioma cell line. Briefly: MTT anti-proliferative assay in SK-N-MC cells. The class given is cell-based, human. To be noted: 72 h at 37° C., mean±SD (3 experiments). As for the experimental part: The cells were maintained in minimum essential media (MEM; Invitrogen, CA, USA) which contained 10% fetal calf serum (FCS; JRH Biosciences, Kansas, USA), 1% non-essential amino acids (Gibco, Victoria, Australia), 1% penicillin/streptomycin/glutamine (Gibco, VIC, Australia) and fungizone ([…]; Squibb Pharmaceuticals, Montreal, Canada).
The ability of the compounds to inhibit cellular proliferation was assessed initially in SK-N-MC cells by the MTT assay.
Table 1. […] Cells were seed and allowed to attach to wells for 24 h and then incubated for 72 h at 37° C. with control medium or the chelators.

For data set [7], the system named is SK-N-MC neuroepithelioma cells. Briefly: Iron efflux assay (59Fe release from pre-labeled cells). It counts as cell-based, human. To be noted: 25 μM chelator, 3 h at 37° C. The protocol: The culture dishes were then placed on ice, the supernatant containing excess ^59Fe-Tf was aspirated and the cells washed 4 times with ice-cold PBS. […] After 3 h the culture dishes were again placed on ice, the media was collected in counting tubes and this provided a measurement of released ^59Fe. Ice-cold PBS (1 mL) was added to plates containing cells and cells were scraped from the plastic surface using a Teflon spatula and also collected in counting tubes. These tubes represent the intracellular ^59Fe content. Results are expressed as total ^59Fe released as a percentage of total ^59Fe present. Radioactivity was measured using a Wallac Wizard 3″ Gamma Counter (PerkinElmer, MA, USA).

For data set [8] the following is noted: mouse, in vivo.
For data set [9], the system named is PANC 1 human pancreatic carcinoma. The data set is described as follows: PANC 1 xenograft in nude mice: tumour growth. The class given is in vivo, nude mice (BALBc nu/nu). The protocol:
FIG. 5). […] (5 mg/kg) or vehicle control.

Data set [10] in a line: DMS-53 xenograft i.v. study: body and organ weights, haematology, histology. To be noted: for HCT / HGB / PLT / RBC / WBC / Body weight (% of initial weight) / Brain weight / Heart weight / Kidney weight / Liver weight / Spleen weight / weight loss (% of initial body weight): i.v.; for HCT / HGB / PLT / RBC / WBC: average; for weight loss (% of initial body weight): after 25 days. The class given is in vivo, nude mice (BALBc nu/nu).

A short description of data set [11]: DMS-53 xenograft oral study: body and organ weights, haematology, biochemistry, histology. It counts as in vivo, nude mice (BALBc nu/nu).
Data set [12] relates to DMS-53 human lung carcinoma. The data set is described as follows: DMS-53 xenograft in nude mice, i.v. administration: tumour growth. The class given is in vivo, nude mice (BALBc nu/nu).
The subject of data set [13] is DMS-53 human lung carcinoma. The data set is described as follows: DMS-53 xenograft in nude mice, oral gavage: tumour growth. The class given is in vivo, nude mice (BALBc nu/nu). To be noted: for Tumour weight: 21 days; for net tumour size (% of initial tumour volume): after 21 days.

Structures can show the parent of a compound that is named as a salt. A value given as a limit tells only on which side of the number the result lay.

Take `O=c1[nH]cc(F)c(=O)[nH]1` [5-fluorouracil]: the IC50 (in general, the point on the concentration scale where inhibition reaches its midpoint) amounted to 41.2 ± 1.1 µM in data set [1], 59.2 ± 24.2 µM in data set [2], 62.3 ± 6.5 µM in data set [3] and 24.3 ± 6.3 µM in data set [4]. Moreover, the 90% effect concentration (IC90) (as a rule, the concentration needed for an effect of 90%) in data set [1] was above 40 µM; in data set [2] it was above 80 µM; in data set [3], above 20 µM; in data set [4], above 5 µM.
Take `CC(=O)N(O)CCCCCNC(=O)CCC(=O)N(O)CCCCCNC(=O)CCC(=O)N(O)CCCCCN` [DFO, desferrioxamine]: the IC50 in data set [1] is 14.7 ± 3.1 µM; in data set [2] it was 7 ± 5.4 µM; in data set [6] (Homo sapiens), 13.4 ± 3.7 µM; in data set [3] it was 9.5 ± 1.4 µM; in data set [4], 38.7 ± 6.2 µM. Further, the 90% effect concentration (IC90) in data set [1], in data set [2], in data set [3] and in data set [4] was above 80 µM in each case. The “cellular 59Fe uptake (% of the control)” value in data set [5] was found to be 84%. Further, the “cellular 59Fe mobilised (59Fe released as percentage of total 59Fe)” value in [7] was 16%.
As for `CN(C(=S)NN=C(c1ccccn1)c1ccccn1)C1CCCCC1` [Dp4cycH4mT.HCl, di-2-pyridylketone 4-cyclohexyl-4-methyl-3-thiosemicarbazone], in data set [8], the “MYOCARDIUM Fibrosis” value is listed as “−”, the “MYOCARDIUM HP (histopathological changes)” value is reported as “N”, the “SPLEEN HPC (score for the presence of haematopoietic cells in the splenic red pulp)” value is reported as “N” and the “iron deposits in the kidney” value was “iron deposits were observed”. The “average tumour size (% of the original tumour size)” value in data set [9] (after 6 weeks, 5 mg/kg i.v. 5 days/week) is on record as 112%. In [9] (after 43 days, 5 mg/kg i.v.), the final tumour weight turned out to be 40 ± 12 mg.
As to `CCN(C)C(=S)NN=C(c1ccccn1)c1ccccn1` [Dp4e4mT.HCl, di-2-pyridylketone 4-ethyl-4-methyl-3-thiosemicarbazone], in data set [10] (2 weeks i.v., Dp44mT 0.75 mg/kg, Dp4e4mT.HCl 4 and 6 mg/kg), the “histology of the liver, spleen, kidney, brain or tumour (H & E) vs control” value is recorded as “no significant differences”. In data set [10] (2 weeks i.v., Dp44mT 0.75 mg/kg, Dp4e4mT.HCl 4 or 6 mg/kg), the “myocardial lesions (Gomori-Trichrome stain)” value is recorded as “did not induce myocardial lesions”. For the same molecule, the “change in red blood cell count, haemoglobin or white blood cell count” value in data set [10] (after 2 weeks, Dp44mT 0.75 mg/kg, Dp4e4mT.HCl 1.5, 4 or 6 mg/kg i.v.) is “no significant change”. In addition, in [10] (1.5 mg), the HCT was 0.4, the HGB is on record as 150.60 g/L, the PLT is given as 766.4 10 × 9 cells/L and the RBC is 8.76 10 × 12 cells/L. Moreover, in data set [10] (1.5 mg), the WBC is recorded as 3.34 10 × 9 cells/L. Moreover, in data set [10] (1.5 mg/kg), the “Body weight (% of initial weight)” value came to 95.14 ± 0.97 % initial weight, the Brain weight was 0.26 ± 0.13 g, the Heart weight is 0.1 ± 0.004 g and the Kidney weight was 0.26 ± 0.01 g. For the same molecule, in data set [10] (1.5 mg/kg), the Liver weight was 1.01 ± 0.02 g and the Spleen weight amounted to 0.11 ± 0.01 g. Besides, in data set [10] (4 mg), the HCT is 0.47, the HGB is reported as 153.75 g/L, the PLT is 1224.5 10 × 9 cells/L and the RBC is 10.74 10 × 12 cells/L. Also, the WBC in data set [10] (4 mg) is 2.94 10 × 9 cells/L. In data set [10] (4 mg/kg), the “Body weight (% of initial weight)” value is 99.41 ± 1.75 % initial weight, the Brain weight stood at 0.36 ± 0.01 g, the Heart weight was determined as 0.1 ± 0.01 g and the Kidney weight is listed as 0.26 ± 0.01 g. Moreover, in data set [10] (4 mg/kg), the Liver weight came to 1.03 ± 0.02 g, the Spleen weight came to 0.08 ± 0.003 g and the “weight loss (% of initial body weight)” value was 0.6%. In addition, in [10] (6 mg), the HCT was found to be 0.41, the HGB amounted to 132.33 g/L, the PLT was 1238 10 × 9 cells/L and the RBC is 9.33 10 × 12 cells/L. Besides, in data set [10] (6 mg), the WBC was 4.63 10 × 9 cells/L. Also, in [10] (6 mg/kg), the “Body weight (% of initial weight)” value is on record as 93.38 ± 3.96 % initial weight, the Brain weight is given as 0.36 ± 0.03 g, the Heart weight was 0.11 ± 0.01 g and the Kidney weight turned out to be 0.27 ± 0.01 g. Also, in data set [10] (6 mg/kg), the Liver weight was 1.1 ± 0.08 g, the Spleen weight amounted to 0.089 ± 0.01 g and the “weight loss (% of initial body weight)” value worked out at 7%. The “myocardial lesions (Gomori-Trichrome stain)” value in data set [11] (Dp44mT 0.75 mg/kg, Dp4e4mT.HCl 3 weeks at 2.5, 5, 7.5 and 10 mg/kg oral) is “did not induce myocardial lesions”. Further, the “histology of the liver, spleen, kidney, brain or tumour (H & E) vs control” value in data set [11] (Dp44mT 2 weeks at 0.75 mg/kg, Dp4e4mT.HCl 3 weeks at 2.5, 5, 7.5 and 10 mg/kg oral) is recorded as “no significant differences”. In addition, in data set [11] (oral gavage 21 days, 5 mg/kg), the “Total Iron-Binding Capacity (TIBC)” value was 53.1 ± 1.2 µmol/L. For the same molecule, the “Alkaline Phosphatase (ALP)” value in data set [11] (oral gavage 21 days, 10 mg/kg) stood at 89.5±4.5 U/L. In data set [11] (oral, 10 mg/kg), the “Body weight (% initial)” value stood at 94 % initial. The same molecule gave a Tumour weight in [12] (1.5 mg/kg) of 0.48 ± 0.6 g. The molecule further returned a Tumour weight in [12] (4 mg/kg) of 0.11 ± 0.09 g. This molecule returned a Tumour weight in data set [12] (6 mg/kg) of 0.04 ± 0.03 g. Moreover, in [13] (2.5 mg/kg), the Tumour weight worked out at 0.63 g and the “net tumour size (% of initial tumour volume)” value came out at 645%. In addition, the “net tumour size (% of initial tumour volume)” value in data set [13] (5 mg/kg) stood at 733%. The molecule further returned a Tumour weight in [13] (10 mg/kg) of 0.46 g.
As for `O=C(NN=Cc1c(O)ccc2ccccc12)c1ccncc1` [compound 311, 2-hydroxy-1-naphthylaldehyde isonicotinoyl hydrazone, reference compound], the “cellular 59Fe uptake (% of the control)” value in data set [5] turned out to be 5%. Moreover, in data set [6], the IC50 came to 0.72 ± 0.32 µM.
